This is an account of results in PubChem BioAssay AID1996.

SMILES strings stand for the structures. ≈ marks a conversion by molar mass, not a printed value.

As a reminder, the kinetic solubility is solubility judged after dilution from a stock solution rather than from solid.

The conditions of this data set: buffer; pH 7.4; 200.0 µM.
With `COc1ccc(CC(C)NC2CCCCCC2)cc1` (stereo not drawn), the solubility (kinetic) was 31 µg/mL (≈ 119 µM).
For `COc1ccc(Cc2nc(-c3ccncc3)no2)cc1`, the kinetic solubility was 35.5 µg/mL (≈ 133 µM).
The same measure for `CCOc1ncnc2c1sc1nc(C)cc(C)c12`: below 0.2 µg/mL; for `OCC(O)CN1CCCC1` (stereo not drawn): 21.4 µg/mL (≈ 147 µM).
Take `O=C(NCCc1ccccc1)c1ccc(Cl)c(S(=O)(=O)N2CCOCC2)c1`: the solubility (kinetic) is 9.3 µg/mL (≈ 22.7 µM).
On to `O=C(CSc1nc(C2CC2)nc2ccccc12)Nc1cccc(O)c1`, for which the solubility (kinetic) is below 0.3 µg/mL.
The result for `CCOc1ccc(Nc2cc(C)c3ccccc3n2)cc1` reads below 0.3 µg/mL.
The result for `CN(C)c1cccc2c(C#N)ccc(N(C)C)c12` reads below 0.2 µg/mL.
The same measure for `CC(=O)Nc1ccc(S(=O)(=O)NCC(=O)Nc2ccc3c(c2)OCO3)cc1`: above 58.7 µg/mL; for `CCOC(=O)c1sc2nc(C)nc(N3CCN(S(=O)(=O)c4ccccc4)CC3)c2c1C`: 2.5 µg/mL (≈ 5.43 µM); for `Cc1cc(C(=O)Nc2ccc(S(=O)(=O)N3CCCC3)cc2)no1`: 2.2 µg/mL (≈ 6.56 µM).
In turn, `CCOc1cccc(C(=O)NC2=NCCS2)c1` came in with a solubility (kinetic) of 26.1 µg/mL (≈ 104 µM).
The result for `O=[N+]([O-])c1ccc(N2CCN(c3cccc(Cl)c3)CC2)nc1` reads 0.4 µg/mL (≈ 1.25 µM); that for `Cc1ccc2c3c([nH]c2c1)C(=O)CC(C)(C)S3`, below 0.5 µg/mL.
Consider `Cc1csc(NC(=O)C2CC(=O)N(Cc3ccco3)C2)n1` (stereo not drawn), for which the kinetic solubility was above 45.8 µg/mL.
`O=c1c2[nH]c3cccc(Cl)c3c2ncn1Cc1ccco1` displayed a solubility (kinetic) of 0.5 µg/mL (≈ 1.67 µM).
The same measure for `O=C1Nc2ccccc2/C1=C/c1ccccc1F`: 2.4 µg/mL (≈ 10 µM); for `COc1cccc(OCC(=O)Nc2ccccc2-c2ccccc2)c1`: 1.5 µg/mL (≈ 4.5 µM).
The result for `Cc1cccc(-n2c(C)c(C)c3c(N)ncnc32)c1` reads 32.7 µg/mL (≈ 130 µM); that for `CC(=O)CC(C)(C)NC(C)=S`, above 26 µg/mL; that for `c1ccc(CNc2ncnc3sc4c(c23)CCCC4)nc1`, 6.7 µg/mL (≈ 22.6 µM).
The result for `O=C(OCc1ccc(F)cc1)c1cccnc1Cl` reads 21.7 µg/mL (≈ 81.7 µM).
For `Cc1ccc(N2CCN(C(=O)NC3CCCCC3)CC2C)cc1` (stereo not drawn), the kinetic solubility is above 47.3 µg/mL.
The result for `CC1CCN(S(=O)(=O)c2cccc(S(=O)(=O)N3CCCC3)c2)CC1` reads 28.1 µg/mL (≈ 75.4 µM); that for `O=C(Nc1cccc(Cl)c1)N1CCCCCC1`, 5.1 µg/mL (≈ 20.2 µM); that for `COP(=O)(NS(=O)(=O)c1ccccc1)OC`, 33.9 µg/mL (≈ 128 µM).
The same measure for `Cn1c(C2CCCCC2)nc2ccccc21`: above 32.1 µg/mL.
On to `O=C(CNC(=O)c1cccs1)OCc1c(F)cccc1Cl`, for which the kinetic solubility was found to be 42.4 µg/mL (≈ 129 µM).
The result for `COCCNC(=O)/C(C#N)=C/C=C/c1ccccc1` reads 28.9 µg/mL (≈ 113 µM).
The result for `Cn1c(SCC(=O)N2CCCC2=O)nc2ccccc21` reads above 43.4 µg/mL; that for `Fc1ccc(-c2csc(Nc3ccccn3)n2)cc1`, 0.6 µg/mL (≈ 2.21 µM).
For the compound `Cc1noc(NS(=O)(=O)c2ccc(NC(=O)C(C)C)cc2)c1C`, the kinetic solubility was above 50.6 µg/mL.
The result for `Cc1cccc(C)c1N1C(=O)CC(N2CCN(S(=O)(=O)c3ccccc3F)CC2)C1=O` (stereo not drawn) reads 50.7 µg/mL (≈ 114 µM).
The result for `Cc1ccc(S(=O)(=O)N(C)C)cc1NC(=O)CCc1ccccc1` reads 49.9 µg/mL (≈ 144 µM); that for `CSc1ncccc1C(=O)N1CCN(S(=O)(=O)c2ccc3c(c2)OCCO3)CC1`, above 65.3 µg/mL.
Take `COc1cc(NC(=O)COC(=O)C=C(C)C)c(C)cc1[N+](=O)[O-]`: the kinetic solubility came to 17.2 µg/mL (≈ 53.4 µM).
`O=[N+]([O-])c1ccc(-c2ccc(S(=O)(=O)N3CCOCC3)cc2)cc1` gave a kinetic solubility below 0.4 µg/mL.
The same measure for `O=C(Nc1ccc(Cl)cc1)Nc1ccc(-c2cnco2)cc1`: 0.7 µg/mL (≈ 2.23 µM).
The result for `CCCN1CN=C(NS(=O)(=O)c2ccc(C)cc2)NC1` reads above 44.5 µg/mL; that for `COc1ccc(-c2c(=O)n(OC)c3ccccc3[n+]2[O-])cc1OC`, above 49.2 µg/mL.
Compound `Cc1cccc(-c2nc(C#N)c(N3CCC(C)CC3)o2)c1` displayed a solubility (kinetic) below 0.2 µg/mL.
The result for `CCCSc1nc2c(c(=O)[nH]c(=O)n2C)n1Cc1ccccc1` reads 1.6 µg/mL (≈ 4.84 µM); that for `N#C/C(=C\c1cccnc1)C(=O)Nc1ccc(SC(F)F)cc1`, 8 µg/mL (≈ 24.1 µM).
The same measure for `S=C1NCN(Cc2ccccc2)CN1C1CCCCC1`: 4.5 µg/mL (≈ 15.5 µM); for `Cc1cccc(N2CC(C(=O)Nc3ccccc3N3CCOCC3)CC2=O)c1C` (stereo not drawn): above 59 µg/mL; for `O=[N+]([O-])c1ccccc1-c1ccc(C(=S)N2CCCCC2)o1`: 11.8 µg/mL (≈ 37.3 µM).
The result for `O=C(Nc1nc2ccc(Br)cc2s1)c1ccco1` reads below 0.3 µg/mL.
The compound `CC1CCCN(C(=O)NC(=O)c2ccc(Cl)cc2)C1` (stereo not drawn) yielded a solubility (kinetic) of 41.8 µg/mL (≈ 149 µM).
`Cc1ccc(C)c(C(C)NC(=O)Cc2cccs2)c1` (stereo not drawn): the solubility (kinetic) is above 41 µg/mL.
The same measure for `O=C(NN=Cc1ccc(O)cc1)c1ccccc1NS(=O)(=O)c1cccs1`: above 60.2 µg/mL.
The result for `Cc1cccc(Oc2nc3c(c(=O)n(C)c(=O)n3C)n2C)c1` reads above 45 µg/mL.
For `CC(=O)Nc1scc(C)c1-c1nc2ccccc2s1`, the kinetic solubility is below 0.3 µg/mL.
The result for `CCOC(=O)c1cnc2c(ccc3ccccc32)c1N` reads below 0.3 µg/mL.
